Reference: US5759768A, “Assays for factors affecting circularization of DNA, assays for factors affecting DNA integration, factors, and uses thereof” (priority 1995, dated 1998)
Read-outs that look alike come from different tables or passages of the source.

What was measured:
[1] = tested on: viral DNA integrated into .phi.X174 target DNA; type: biochemical, HIV-1; conditions: for Relative activity, % of standard: target DNA 10 μg/ml; for inhibition of integration: 90 min incubation
Procedure: (§1) The chronically HIV-1 infected Molt IIIB human T cell line (HTLV IIIB virus strain) was the source of virus for cell-free infections. This human T cell line constitutively produces a low level of the HTLV-111B strain of HIV-1. Culture supernatant containing a high concentration of virus was prepared by incubating 300×10^6 Molt IIIB cells in 50 ml fresh RPMI 1640 medium containing 20% fetal calf serum and 10 ng of phorbol 12-myristate 13-acetate per ml for 20-24 hours. […] Cytoplasmic extracts (3 ml) were prepared 4-4.5 hours post-infection, by a modification of the procedure of Brown et al., Cell 49: 342-356 (1987).
(§2) At specified times after infection, cells were washed twice with buffer K (20 mM Hepes, pH 7.4, 150 mM KCl, 5 mM MgCl2, 1 mM dithiothreitol, […]) and then lysed at a concentration of 33×10^6 cells per ml in the same buffer containing 0.025% digitonin or 0.025% Triton X-100. Cells were extracted for 10 minutes at room temperature, and the lysate was centrifuged at 1000×g for 3 minutes, and is referred to as "cytoplasmic extract". Cytoplasmic extract was the source of viral DNA for analyses in the assays described below. The pellet from the initial low-speed centrifugation contained cell debris and intact nuclei and is called the "nuclear pellet". Cell extracts from uninfected SupT1 cells were prepared in the same manner.
(§3) DNA samples were layered on 0.8% agarose gels and electrophoresed at 1 V/cm for 15 hour in Tris/acetate/EDTA buffer. After electrophoresis, DNA was blotted by capillary action onto nitrocellulose (0.45 μm, Schleicher & Schuell).
In Vitro Integration Reaction
Pst I-linearized (replicative form III) .phi.X174 DNA, relaxed circular (replicative form II) .phi.X174 DNA, and single-stranded M13 DNA were used as targets for the in vitro integration of viral DNA. Target DNA was added to cytoplasmic extracts of intected SupT1 cells to a concentration of 10 μg/ml, and reaction mixtures were incubated at […]. Reactions, were stopped by the addition of SDS and proteinase K.
Cytoplasmic extracts prepared from SupT1 cells 4 hours after infection with HIV-1 were incubated with exogenously added target DNA under integration reaction conditions. Products of the reactions were analyzed by Southern blot hybridization. The time course of integration into linear .phi.X174 DNA target was determined. Target DNA was added to the extract and the reaction was stopped after 0,5,15,30, or 45 minutes of incubation at 37° C. (FIG. 11, lanes a-e, respectively). Purified linear viral DNA was incubated for 1 hour at 37° C. with cytoplasmic extract prepared from uninfected SupT1 cells (lane f). […] Arrows in the Figure indicate the positions of viral DNA products. L, linear viral DNA:I, integration product. Integration was detected by the shift of linear viral DNA on Southern blots from the characteristic 9.7-kilobase (kb) position to a position corresponding to viral DNA plus target DNA.

[2] = tested on: linear viral DNA (circularization); type: biochemical, HIV-1
Procedure: as §1, §2
Viral DNA present in cytoplasmic extracts was deproteinated by incubation with proteinase K (1 mg/ml)/10 mM EDTA/0.5% SDS for 1 hour at 55° C. Samples were extracted successively with phenol/chloroform [1:1 (vol/vol)] and chloroform. DNA was ethanol-precipitated, washed with 70% ethanol, resuspended in 10 mM Tris.HCI (pH 7.4), and treated with RNase A (20 μpg/ml)for 1 hour at […]. before analysis by agarose gel electrophoresis and Southern blotting.
as §3
Cell extracts were prepared from cells four to five hours after infection with HIV-1, using the above-described methods to yield fully functional viral preintegration complexes. […] In all cases, a HIV-1 LTR-containing DNA fragment was used as a hybridization probe. Therefore, only LTR-containing DNA fragments are detected. […] Lane 5: Unintegrated viral DNA prepared by Hirt extraction of SupT1 cells infected 24 hours earlier with concentrated HIV-1. […] Viral DNA was purified from extracts incubated with 1 mM ATP for 15 minutes (lanes 1 and 4), with 1 mM ATP for 45 minutes (lanes 3 and 6), or with 1 mM ATPγS for 45 minutes (lanes 2 and 5). Lanes 1-3: uncut viral DNA; lanes 4-6: viral DNA was cut with SalI prior to electrophorosis. Lane 7: linear viral DNA, prepared from untreated extracts was digested with SalI prior to electrophorosis. Lane 8: unintegrated viral DNA prepared by Hirt extraction of infected cells, as described with respect to FIG. 14, digested with SalI prior to electrophoresis. […] Lanes 1-3. Viral DNA prepared from extracts treated with 1 mM ATP for 15 minutes, 30 minutes and 45 minutes, respectively. Lane 4: Viral DNA prepared from extract treated with 1 mM ATPγS for 45 minutes. Lanes 5-7: products of reactions shown in lanes 1-3, respectively, digested with SalI and PstI prior to electrophoresis. Lane 8: SalI, PstI digestion of viral DNA prepared from extract treated with 1 mM ATP for 90 minutes. Lane 9: SalI, PstI digestion of reaction products shown in lane 4. Lane 10: SalI, PstI digestion of unintegrated viral DNA prepared by Hirt extraction of infected cells.

For O=C(O)CN(CCN(CC(=O)O)CC(=O)O)CC(=O)O [EDTA], the “detectable integration in vitro” value ([1]; 1 mM EDTA, buffer devoid of added MgCl2) was “absence of detectable integration”, the “Relative activity, % of standard” value ([1]; -Mg2+/+EDTA) was 0 % of standard and the detectable circle formation [2] was “abolished detectable circle formation”.

In the case of [Cl-].[K+] [KCl], the “Relative activity, % of standard” value ([1]; KCl 100 mM) is reported as 85 % of standard, the “detectable integration in vitro” value ([1]; KCl 250 mM or greater) is reported as “completely abolished detectable integration” and the “Relative activity, % of standard” value ([1]; KCl 250 mM) is reported as 0 % of standard. The “KCl concentration of most efficient formation of 1-LTR circles” value ([2]; 1 mM ATP, 37° C., 90 min) was 125 mM, the “circular forms at KCl concentration” value ([2]; 100 mM KCl, 1 mM ATP, 90 min) was 1-LTR circles were formed almost exclusively and the “circular forms at higher salt concentrations” value ([2]; higher KCl concentrations (lane 6: 250 mM), 1 mM ATP, 90 min) was “most entirely of the 2-LTR form”. The “1-LTR [KCl] optimum” value ([2]; table) was 125 mM and the “Autointegration [KCl] optimum” value ([2]; table) was 150 to 175 mM.

In the case of CC[C@@]1(O)C(=O)OCc2c1cc1n(c2=O)Cc2cc3ccccc3nc2-1 [camptothecin], the inhibition of integration ([1]; 5 μM) is reported as “about 50%” and the inhibition of integration ([1]; 50 μM) is reported as “about 100%”.

alkaline phosphatase was tested, and the “effect on the in vitro integration reaction” value ([1]; pretreatment of linear target DNA) was “no effect on the in vitro integration reaction”.
